Measurements published in ChEMBL document CHEMBL3507680, “University of Dundee, Gates Library screen for HepG2 cell viability”.

Assay: Human HepG2 cell viability assay in 384 well format
Assay type: toxicity, cell-based
Design: dose 125 nL, time 70.5 hour; cytotoxicity at 70.5 h: concentration not given beside the values
Details: HepG2 cells, read-out: Inhibition

Compared with `c1cc(CN2C[C@@H]3OCCN(CC4CCCO4)[C@@H]3C2)co1` (stereo partly drawn), `c1cc(CN2C[C@@H]3OCCN(CCN4CCCC4)[C@@H]3C2)co1` is higher in cytotoxicity at 70.5 h: -10.8% for the first, -10.1% for the second.

Going from `CCS(=O)(=O)N1CCC2(CN(c3cc(OC)ncn3)C2)C1` to `CCS(=O)(=O)N1CCC2(COCc3cnc(N4CCOCC4)nc32)C1` (stereo not drawn), the cytotoxicity at 70.5 h falls from 12.1% to -6.84%.

First: COc1cccc(N2CC3(CCN(c4ccncn4)C3)CC2=O)c1 (stereo not drawn)
Second: COc1cccc(N2CC3(CCN(c4ccc(C)nn4)C3)CC2=O)c1 (stereo not drawn)
The cytotoxicity at 70.5 h of the first is higher: 14.6% for the first, -2.78% for the second.

First: Cc1ccoc1C(=O)N1CCCc2c(c(=O)n(C)n2C)C1
Second: Cc1ccc(C(=O)N2CCCc3c(c(=O)n(C)n3C)C2)o1
The cytotoxicity at 70.5 h of the first is higher: 11.9% for the first, 11.7% for the second.

Going from `Cc1cc(C(=O)N2C[C@@H]3CCCO[C@@H]3[C@H](N3CCOCC3)C2)c(C)[nH]1` to `Cc1cc(C(=O)N2C[C@@H]3CCCO[C@@H]3[C@H](N(C)C(C)C)C2)c(C)[nH]1`, the cytotoxicity at 70.5 h rises from -12.4% to -6.48%.

Compared with `CC(C)n1cnc(C2CN(C)c3ccc(C(=O)NCC4CC4)cc32)n1` (stereo not drawn), `CCOCC1CN(Cc2ccc(F)cc2)Cc2nn(CC3CC3)cc21` (stereo not drawn) is lower in cytotoxicity at 70.5 h: -3.88% for the first, -17.2% for the second.

First: c1cc(CN2CCc3nc(N4CCOCC4)nc(NC4CC4)c3C2)co1
Second: Cc1nc(N2CCCC2)nc2c1CCN(C(=O)C1CCC1)CC2
The cytotoxicity at 70.5 h of the first is higher: -10.6% for the first, -12.5% for the second.

First: CS(=O)(=O)N1CCc2ccc(=O)n(CC3CC3)c2CC1
Second: CCS(=O)(=O)N1CCc2ccc(=O)n(CC3CC3)c2CC1
The cytotoxicity at 70.5 h of the first is higher: -7.85% for the first, -9.39% for the second.

First: CN(C)C(=O)CN1C[C@H]2CCN(C(=O)c3ccncc3)CC[C@H]2S1(=O)=O
Second: CC(C)CC(=O)N1CC[C@@H]2CN(CC(=O)N(C)C)S(=O)(=O)[C@@H]2CC1
The cytotoxicity at 70.5 h of the first is lower: -3.99% for the first, 1.05% for the second.

Going from `CN(Cc1ccccc1)CC1CC2(CO1)CN(Cc1nccs1)C2` (stereo not drawn) to `Cn1cccc1C(=O)NC[C@]12COC[C@H]1CN(Cc1nccs1)C2`, the cytotoxicity at 70.5 h falls from -6.93% to -15.1%.

First: Cc1noc(C)c1C(=O)N1C[C@@H]2CCCO[C@@H]2[C@H](N(C)C)C1
Second: CCN(CC)[C@@H]1CN(Cc2nccn2C)[C@@H]2CCCO[C@H]12
The cytotoxicity at 70.5 h of the first is lower: -8.14% for the first, -3.21% for the second.

First: COCCN1CCC2(CC1)CC(OCC1CC1)c1ccc(C)cc12 (stereo not drawn)
Second: COCCN1CCC2(CC1)CN(CCn1cccn1)C(=O)CO2
The cytotoxicity at 70.5 h of the first is higher: 5.78% for the first, 1.22% for the second.

Going from `Cc1cnc(N2CCCn3c(nnc3Cn3cccn3)C2)nc1` to `Cn1cncc1CN1CCC2(CCCN2c2ncccn2)CC1`, the cytotoxicity at 70.5 h falls from 10.6% to -8.23%.

Going from `CCn1cc2c(n1)CN(S(=O)(=O)Cc1ccccc1)CC2COC` (stereo not drawn) to `CCn1cc2c(n1)CN(S(=O)(=O)c1cccnc1)CC2COC` (stereo not drawn), the cytotoxicity at 70.5 h falls from 11.6% to 1.06%.

Going from `O=C(Cc1ccsc1)NC1CCc2c(ccc(=O)n2CC2CC2)C1` (stereo not drawn) to `O=C(CC1CC1)N1CC[C@H]2[C@@H]1CCC(=O)N2Cc1ccncc1`, the cytotoxicity at 70.5 h falls from 12% to -9.8%.

First: COCCC(=O)N1CC[C@@H](N2CCN(C)CC2)[C@@H]1Cc1ccccc1
Second: CC(C)CC(=O)N1CC[C@H]2N(C)CC[C@@]2(C(=O)Nc2ccccc2)CC1
The cytotoxicity at 70.5 h of the first is lower: -1.48% for the first, 36.5% for the second.

First: c1cnn([C@@H]2CN(Cc3nccs3)[C@@H]3CCCO[C@@H]32)c1
Second: c1csc(CN2C[C@@H](n3cccn3)[C@H]3OCCC[C@H]32)c1
The cytotoxicity at 70.5 h of the first is lower: -6.1% for the first, -3.02% for the second.

Compared with `Cc1noc(C[C@@H]2COC[C@H]3CN(S(=O)(=O)C4CC4)C[C@@H]23)n1`, `Cc1noc(C[C@@H]2COC[C@H]3CN(S(C)(=O)=O)C[C@@H]23)n1` is lower in cytotoxicity at 70.5 h: -5.01% for the first, -5.3% for the second.

Compared with `CCOCc1cncc2c1CCN(S(=O)(=O)c1ccc(C)cc1)C2`, `O=S(=O)(c1cccnc1)N1C[C@H]2CCC[C@@]2(COc2ccccn2)C1` is lower in cytotoxicity at 70.5 h: -2.29% for the first, -7.2% for the second.

Going from `O=C(c1ncn2c1CNS(=O)(=O)c1ccccc1-2)N1CCCCCC1` to `O=C(c1ncn2c1CNS(=O)(=O)c1ccccc1-2)N1CC=CC1`, the cytotoxicity at 70.5 h rises from 0.0876% to 1.87%.

Going from `CO[C@@H]1CC[C@H]2[C@H]1OCCN2C(=O)C1CCOCC1` to `O=C(NCc1cccs1)[C@H]1CC[C@@H]2[C@@H](CCN2C2CCC2)O1`, the cytotoxicity at 70.5 h rises from -15% to -3.48%.

First: CCN1CC2(CC1=O)CN(Cc1ccoc1)CCN(C(=O)C(C)C)C2 (stereo not drawn)
Second: CCN1CC2(CC1=O)CN(Cc1ccco1)CCN(C(=O)C(C)C)C2 (stereo not drawn)
The cytotoxicity at 70.5 h of the first is lower: -20.2% for the first, 7.56% for the second.

First: CC(=O)N1CC[C@@]2(C(=O)Nc3ccccc3)CCN(S(C)(=O)=O)CC[C@@H]12
Second: O=C(Nc1ccccc1)[C@H]1C[C@@H]2CN(S(=O)(=O)C3CC3)C[C@H]1O2
The cytotoxicity at 70.5 h of the first is higher: -1.82% for the first, -14.4% for the second.

Compared with `CC(C)NC(=O)N1CCN(C(=O)C(C)C)CC2(CC(=O)N(C)C2)C1` (stereo not drawn), `CCN1CC2(CC1=O)CN(Cc1ccncc1)CCN(C(=O)C(C)C)C2` (stereo not drawn) is higher in cytotoxicity at 70.5 h: 7.84% for the first, 28.2% for the second.

First: Cc1noc([C@H]2COC[C@H]3CN(C(=O)Cc4ccccc4F)C[C@H]32)n1
Second: Cc1noc([C@H]2COC[C@H]3CN(C(=O)Cc4cccc(F)c4)C[C@H]32)n1
The cytotoxicity at 70.5 h of the first is lower: -17% for the first, -16.4% for the second.

First: CCOCC1COCCC12CCN(C(=O)CCOC)CC2 (stereo not drawn)
Second: COCC1COCCC12CCN(C(=O)Cc1cccc(OC)c1)CC2 (stereo not drawn)
The cytotoxicity at 70.5 h of the first is lower: -17.1% for the first, -11.4% for the second.

First: COCc1cnc2n1CCN(C(=O)C1=CCCC1)C2C (stereo not drawn)
Second: Cc1noc(C)c1CN1CCc2ncc(CN3CCCC3)n2CC1
The cytotoxicity at 70.5 h of the first is lower: -14.6% for the first, -5.92% for the second.

Going from `CCCS(=O)(=O)N1CC[C@H]2O[C@@H](c3nc(C)no3)CC[C@H]21` to `Cc1noc([C@@H]2CC[C@@H]3[C@@H](CCN3S(=O)(=O)c3ccccc3)O2)n1`, the cytotoxicity at 70.5 h rises from -21.7% to -14.9%.

Compared with `CC(C)NC(=O)N1CCC2(COCc3cnc(N4CCOCC4)nc32)C1` (stereo not drawn), `Cc1ccc(C(=O)N2CCOCC3(CCN(C4CCOCC4)C3)C2)o1` (stereo not drawn) is lower in cytotoxicity at 70.5 h: 2.23% for the first, -13.2% for the second.

Going from `O=C(c1cnccn1)N1CCN(CC2CC2)c2ncccc2C1` to `Cc1nc(CN2CCN(CC3CCOC3)Cc3cccnc32)cs1` (stereo not drawn), the cytotoxicity at 70.5 h falls from 5.88% to -8.4%.

Going from `CN(C)C(=O)C1OC2(CCN(C(=O)c3ccco3)CC2)c2ccccc21` (stereo not drawn) to `O=C(c1ccco1)N1CC[C@H]2C[C@@H](c3nccs3)O[C@@H]2C1`, the cytotoxicity at 70.5 h rises from -16.7% to -1.13%.

First: COc1ncccc1C(=O)N1CC[C@H]2C[C@@H](c3noc(C)n3)O[C@@H]2C1
Second: COc1ncccc1C(=O)N1CC[C@H]2C[C@H](c3nnc(C)[nH]3)O[C@@H]2C1
The cytotoxicity at 70.5 h of the first is higher: -8.55% for the first, -14.1% for the second.

Compared with `Cn1cc(CN2CCC3(CC2)COC(COc2ccccn2)C3)cn1` (stereo not drawn), `CO[C@@H]1CCN(Cc2cnn(C)c2)[C@@H]2CN(Cc3cccnc3)C[C@@H]21` is higher in cytotoxicity at 70.5 h: -14.7% for the first, -9.6% for the second.

Going from `CC(C)NC(=O)C1CN(C(=O)CCc2ccccc2)CC12CCOCC2` (stereo not drawn) to `O=C(NC[C@]12COC[C@H]1CN(CC1CCOCC1)C2)c1ccccc1`, the cytotoxicity at 70.5 h falls from 44.3% to 1.78%.

Compared with `CC(C)CS(=O)(=O)N1C[C@H]2C[C@H](C(=O)Nc3cccnc3)[C@@H](C1)O2`, `CC(C)CCN1C[C@H]2C[C@H](C(=O)Nc3ccccc3)[C@@H](C1)O2` is lower in cytotoxicity at 70.5 h: -6.34% for the first, -21.4% for the second.

Going from `COCCNC(=O)[C@@H]1CCO[C@@H]2CCN(Cc3cnn(C)c3)C[C@@H]21` to `Cn1cc(CN2CC[C@H]3OCC[C@@H](C(=O)NCc4ccco4)[C@@H]3C2)cn1`, the cytotoxicity at 70.5 h rises from -11.1% to -8%.

Compared with `O=C(N[C@@H]1CN(Cc2ccccn2)[C@@H]2COC[C@@H]21)C1CCC1`, `Cc1nc(CN2C[C@@H](NC(=O)C3CCC3)[C@H]3COC[C@H]32)cs1` is lower in cytotoxicity at 70.5 h: -1.02% for the first, -5.49% for the second.

First: O=C(c1c[nH]cn1)N1CCC(F)(F)C2(CCN(c3ncccn3)C2)C1 (stereo not drawn)
Second: COCCN1CCCC12CCN(c1ncccn1)CC2
The cytotoxicity at 70.5 h of the first is higher: -5.46% for the first, -14.3% for the second.

Going from `CCN1C(=O)[C@H]2CN(CC(C)C)C[C@H]2C12CCN(S(C)(=O)=O)CC2` to `CCC1=N[C@@]2(CC[C@@H]3CN(CC4CC4)C[C@@H]32)C(=O)N1CC1CC1`, the cytotoxicity at 70.5 h falls from -6.33% to -20.5%.

First: CN1CCN(c2ncnc3c2CCN(c2ncc(F)cn2)CC3)CC1
Second: Cc1ccc(CN2CCC3(CC2)CN(c2cnn(C)c2)C(=O)CO3)o1
The cytotoxicity at 70.5 h of the first is higher: -1.02% for the first, -9.82% for the second.

Compared with `O=C(NCC1CC[C@@H]2[C@@H]1OCCN2Cc1cccs1)c1ccco1` (stereo partly drawn), `O=C(NCc1cccs1)[C@@H]1CC[C@@H]2[C@@H](CCN2CC2CCC2)O1` is lower in cytotoxicity at 70.5 h: -0.679% for the first, -17.4% for the second.

Going from `COc1ccccc1CN1CC[C@]2(C[C@@H](OC)CO2)C1` to `CCCS(=O)(=O)N1CCOC2(CCCN(c3ccccn3)C2)C1` (stereo not drawn), the cytotoxicity at 70.5 h falls from -4.33% to -13.3%.

Going from `CCn1ncc2c1CN(C(=O)Cc1cccs1)CC2COC` (stereo not drawn) to `CO[C@H]1CCN(Cc2cnn(C)c2)[C@@H]2CN(Cc3ccncc3)C[C@H]12`, the cytotoxicity at 70.5 h rises from -7.83% to -6.62%.

Compared with `O=C(NC[C@]12COC[C@H]1CN(Cc1nccs1)C2)c1cscn1`, `O=S(=O)(C1CC1)N1C[C@H]2CCC[C@@]2(COCc2ccccn2)C1` is lower in cytotoxicity at 70.5 h: -3.54% for the first, -14.3% for the second.

First: O=C(Cc1ccccc1)N1CC[C@H]2[C@@H]1CCC(=O)N2Cc1ccncc1
Second: CO[C@@H]1CCN(S(=O)(=O)N(C)C)[C@@H]2CN(Cc3ccncc3)C[C@@H]21
The cytotoxicity at 70.5 h of the first is higher: 1.86% for the first, -1.72% for the second.

First: Cc1cccc(CN2C[C@@H](NC(=O)C3CC3)[C@H]3OCCC[C@H]32)n1
Second: Fc1cccnc1O[C@@H]1CN(Cc2ccccn2)[C@@H]2CCCO[C@@H]21
The cytotoxicity at 70.5 h of the first is higher: 4.63% for the first, -10.3% for the second.

Going from `CC(=O)N1CCCC1c1nnn2cc(NCc3cccnc3)ccc12` (stereo not drawn) to `CN(C[C@@H]1CCC[C@@H]2CN(Cc3cccnc3)C[C@@H]21)C1CC1`, the cytotoxicity at 70.5 h rises from -18.3% to -1.32%.

Compared with `Fc1cccnc1O[C@H]1CN(Cc2ccoc2)[C@@H]2CCCO[C@H]12`, `O=C(C[C@@H]1COC[C@H]2CN(Cc3cccnc3)C[C@@H]12)N1CCOCC1` is higher in cytotoxicity at 70.5 h: -4.66% for the first, 29.4% for the second.

Going from `O=C(C[C@@H]1COC[C@H]2CN(Cc3ccccn3)C[C@@H]12)N1CCOCC1` to `COCCN1C[C@H]2[C@@H](C1)N(Cc1cnn(C)c1)CC[C@H]2OC`, the cytotoxicity at 70.5 h falls from -2.94% to -11.3%.
